Laboratory results: PMC9078972 (RSC Advances, 2018)
Converted amounts (≈) assume the structure as drawn.

Columns and labels:
[1] = Cytotoxicity against VERO cells; format: cell-based; conditions: African green monkey, VERO cells (kidney epithelial cells)
physchem = conditions: 37 °C, water, thermodynamic from solid
[2] = tested on: Mycobacterium tuberculosis H37Ra; test: microbe, parasite or virus in culture; format: cell-based

O=C1CN(c2nc(=O)c3cc(C(F)(F)F)cc([N+](=O)[O-])c3s2)CCN1C1CCCCC1 [Compound 1b, 2-(4-Cyclohexyl-3-oxopiperazin-1-yl)-8-nitro-6-(trifluoromethyl)-4H-benzo[e]-[1,3]thiazin-4-one]
CC50 [1]: > 10 µM
solubility (physchem): 1.63 µg/mL (≈ 3.57 µM)
MIC [2]: 0.017 µM (≈ 7.76 ng/mL)

O=C1CN(c2nc(=O)c3cc(C(F)(F)F)cc([N+](=O)[O-])c3s2)CCN1CC1CCCCC1 [Compound 1c, 2-(4-(Cyclohexylmethyl)-3-oxopiperazin-1-yl)-8-nitro-6-(trifluoromethyl)-4H-benzo-[e][1,3]thiazin-4-one]
CC50 [1]: > 10 µM
solubility (physchem): 3.57 µg/mL (≈ 7.59 µM)
MIC [2]: 0.017 µM (≈ 8 ng/mL)

CCCCN1CCN(c2nc(=O)c3cc(C(F)(F)F)cc([N+](=O)[O-])c3s2)CC1=O [Compound 1d, 2-(4-Butyl-3-oxopiperazin-1-yl)-8-nitro-6-(trifluoromethyl)-4H-benzo[e][1,3]-thiazin-4-one]
CC50 [1]: > 10 µM

CCOC(=O)C1CCN(c2nc(=O)c3cc(C(F)(F)F)cc([N+](=O)[O-])c3s2)CC1 [Compound 2a, Ethyl 1-(8-nitro-4-oxo-6-(trifluoromethyl)-4H-benzo[e][1,3]thiazin-2-yl)piperidine-4-carboxylate]
CC50 [1]: > 10 µM
MIC [2]: 0.008 µM (≈ 3.45 ng/mL)

CCOC(=O)CN1CCN(c2nc(=O)c3cc(C(F)(F)F)cc([N+](=O)[O-])c3s2)CC1 [Compound 2b, Ethyl 2-(4-(8-nitro-4-oxo-6-(trifluoromethyl)-4H-benzo[e][1,3]thiazin-2-yl)-piperazin-1-yl)acetate]
CC50 [1]: > 10 µM
MIC [2]: 0.02 µM (≈ 8.93 ng/mL)

CCOC(=O)CC1CCN(c2nc(=O)c3cc(C(F)(F)F)cc([N+](=O)[O-])c3s2)CC1 [Compound 2c, Ethyl 2-(1-(8-nitro-4-oxo-6-(trifluoromethyl)-4H-benzo[e][1,3]thiazin-2-yl)-piperidin-4-yl)acetate]
CC50 [1]: > 10 µM
MIC [2]: 0.016 µM (≈ 7.13 ng/mL)

CCOC(=O)C(C)N1CCN(c2nc(=O)c3cc(C(F)(F)F)cc([N+](=O)[O-])c3s2)CC1 (stereo not shown) [Compound 2d, Ethyl 2-(4-(8-nitro-4-oxo-6-(trifluoromethyl)-4H-benzo[e][1,3]thiazin-2-yl)-piperazin-1-yl)propanoate]
MIC [2]: 0.008 µM (≈ 3.68 ng/mL)

O=C1OCCC1N1CCN(c2nc(=O)c3cc(C(F)(F)F)cc([N+](=O)[O-])c3s2)CC1 (stereo not shown) [Compound 2f, 8-Nitro-2-(4-(2-oxotetrahydrofuran-3-yl)piperazin-1-yl)-6-(tri-fluoromethyl)-4H-benzo[e][1,3]thiazin-4-one]
CC50 [1]: > 10 µM
MIC [2]: 0.064 µM (≈ 28.4 ng/mL)

CCCC1CC(N2CCN(c3nc(=O)c4cc(C(F)(F)F)cc([N+](=O)[O-])c4s3)CC2)C(=O)O1 (stereo not shown) [Compound 2g, 8-Nitro-2-(4-(2-oxo-5-propyltetrahydrofuran-3-yl)piperazin-1-yl)-6-(trifluoromethyl)-4H-benzo[e][1,3]thiazin-4-one]
CC50 [1]: > 10 µM
MIC [2]: 0.016 µM (≈ 7.78 ng/mL)

O=C(OC1CCN(c2nc(=O)c3cc(C(F)(F)F)cc([N+](=O)[O-])c3s2)CC1)c1ccc(F)cc1 [Compound 2h, 1-(8-Nitro-4-oxo-6-(trifluoromethyl)-4H-benzo[e][1,3]thiazin-2-yl)piperidin-4-yl 4-fluorobenzoate]
MIC [2]: ≤ 0.002 µM

O=C(OC1CCN(c2nc(=O)c3cc(C(F)(F)F)cc([N+](=O)[O-])c3s2)CC1)c1ccccc1F [Compound 2i, 1-(8-Nitro-4-oxo-6-(trifluoromethyl)-4H-benzo[e][1,3]thiazin-2-yl)piperidin-4-yl 2-fluorobenzoate]
CC50 [1]: > 10 µM
MIC [2]: ≤ 0.002 µM

O=C(OC1CCN(c2nc(=O)c3cc(C(F)(F)F)cc([N+](=O)[O-])c3s2)CC1)c1ccccc1Cl [Compound 2j, 1-(8-Nitro-4-oxo-6-(trifluoromethyl)-4H-benzo[e][1,3]thiazin-2-yl)piperidin-4-yl 2-chlorobenzoate]
CC50 [1]: > 10 µM
MIC [2]: 0.008 µM (≈ 4.11 ng/mL)

O=C(OC1CCN(c2nc(=O)c3cc(C(F)(F)F)cc([N+](=O)[O-])c3s2)CC1)c1ccc(C(F)(F)F)cc1 [Compound 2k, 1-(8-Nitro-4-oxo-6-(trifluoromethyl)-4H-benzo[e][1,3]thiazin-2-yl)piperidin-4-yl 4-(trifluoromethyl)benzoate]
CC50 [1]: > 10 µM
MIC [2]: 0.008 µM (≈ 4.38 ng/mL)

COc1ccc(C(=O)OC2CCN(c3nc(=O)c4cc(C(F)(F)F)cc([N+](=O)[O-])c4s3)CC2)cc1 [Compound 2l, 1-(8-Nitro-4-oxo-6-(trifluoromethyl)-4H-benzo[e][1,3]thiazin-2-yl)piperidin-4-yl 4-methoxybenzoat]
CC50 [1]: > 10 µM
MIC [2]: 0.008 µM (≈ 4.08 ng/mL)

COc1ccccc1C(=O)OC1CCN(c2nc(=O)c3cc(C(F)(F)F)cc([N+](=O)[O-])c3s2)CC1 [Compound 2m, 1-(8-Nitro-4-oxo-6-(trifluoromethyl)-4H-benzo[e][1,3]thiazin-2-yl)piperidin-4-yl 2-methoxybenzoate]
CC50 [1]: > 10 µM
MIC [2]: 0.063 µM (≈ 32.1 ng/mL)

COC(=O)c1ccc(C(=O)OC2CCN(c3nc(=O)c4cc(C(F)(F)F)cc([N+](=O)[O-])c4s3)CC2)cc1 [Compound 2n, Methyl (1-(8-nitro-4-oxo-6-(trifluoromethyl)-4H-benzo[e][1,3]thiazin-2-yl)-piperidin-4-yl) terephthalate]
CC50 [1]: > 10 µM
MIC [2]: 0.063 µM (≈ 33.9 ng/mL)

CN(C)c1ccc(C(=O)OC2CCN(c3nc(=O)c4cc(C(F)(F)F)cc([N+](=O)[O-])c4s3)CC2)cc1 [Compound 2o, 1-(8-Nitro-4-oxo-6-(trifluoromethyl)-4H-benzo[e][1,3]thiazin-2-yl)piperidin-4-yl 4-(dimethylamino)benzoate]
CC50 [1]: > 10 µM
MIC [2]: 0.031 µM (≈ 16.2 ng/mL)

O=c1nc(N2CCC(Oc3ccc(F)cc3)CC2)sc2c([N+](=O)[O-])cc(C(F)(F)F)cc12 [Compound 3b, 2-(4-(4-Fluorophenoxy)piperidin-1-yl)-8-nitro-6-(trifluoro-methyl)-4H-benzo[e][1,3]-thiazin-4-one]
MIC [2]: 0.004 µM (≈ 1.88 ng/mL)

Cc1ccccc1OC1CCN(c2nc(=O)c3cc(C(F)(F)F)cc([N+](=O)[O-])c3s2)CC1 [Compound 3g, 8-Nitro-2-(4-(o-tolyloxy)piperidin-1-yl)-6-(trifluoromethyl)-4H-benzo[e][1,3]thiazin-4-one]
CC50 [1]: > 10 µM
MIC [2]: 0.016 µM (≈ 7.45 ng/mL)

O=c1nc(N2CCC(Oc3ccc(OC(F)(F)F)cc3)CC2)sc2c([N+](=O)[O-])cc(C(F)(F)F)cc12 [Compound 3h, 8-Nitro-2-(4-(4-(trifluoromethoxy)phenoxy)piperidin-1-yl)-6-(trifluoromethyl)-4H-benzo[e][1,3]thiazin-4-one]
CC50 [1]: > 10 µM
MIC [2]: 0.008 µM (≈ 4.28 ng/mL)

O=c1nc(N2CCC(Oc3ccccn3)CC2)sc2c([N+](=O)[O-])cc(C(F)(F)F)cc12 [Compound 3k, 8-Nitro-2-(4-(pyridin-2-yloxy)piperidin-1-yl)-6-(trifluoro-methyl)-4H-benzo[e][1,3]thiazin-4-one]
CC50 [1]: > 10 µM
MIC [2]: 0.031 µM (≈ 14 ng/mL)

O=c1nc(N2CCC(Oc3ccc(F)cn3)CC2)sc2c([N+](=O)[O-])cc(C(F)(F)F)cc12 [Compound 3l, 2-(4-((5-Fluoropyridin-2-yl)oxy)piperidin-1-yl)-8-nitro-6-(tri-fluoromethyl)-4H-benzo[e][1,3]thiazin-4-one]
CC50 [1]: > 10 µM
MIC [2]: 0.031 µM (≈ 14.6 ng/mL)

O=c1nc(N2CCC(Oc3nccc(C(F)(F)F)n3)CC2)sc2c([N+](=O)[O-])cc(C(F)(F)F)cc12 [Compound 3n, 8-Nitro-6-(trifluoromethyl)-2-(4-((4-(trifluoromethyl)pyrimidin-2-yl)oxy)piperidin-1-yl)-4H-benzo[e][1,3]thiazin-4-one]
MIC [2]: 0.004 µM (≈ 2.09 ng/mL)
